Assay results: US20260266837A1, “Methods for Cancer Recurrence Detection and Treatment Thereof” (Institut Curie, priority 2022, published 2026)

Tests used:
[1] = test system: MDA-MB-468; experiment: Prolonged 5-FU treatment, cell proliferation and survival; assay type: cell-based, human
Experimental: (§1) Cell lines, culture conditions and drug treatments. MDA-MB-468 cells were cultured in DMEM (Gibco-BRL, Ref: 11966025), supplemented with 10% heat-inactivated fetal calf serum (Gibco-BRL, Ref: 10270-106). HCC38 and BT20 cell lines were cultured in RPMI 1640 (Gibco-BRL, Ref: 11875085), supplemented with 10% heat-inactivated fetal calf serum. […] Cells were treated with 5 μM of 5-FU (Sigma, Ref: F6627) alone or in combination with KDM6A/Bi or EZH2i for indicated days. For EZH2i, cells were pretreated with UNC 1999, UNC 2400 or GSK 126 for 10 days before the addition of 5-FU for an additional 21 days (FIG. 4 and Extended FIG. 8).

[2] = test system: MDA-MB-468 untreated and chemoresistant cells; experiment: XTT cell cytotoxicity, IC50 to 5-FU; assay type: cell-based, human; conditions: resistant cells after over 15 weeks of 5-FU, 72 h XTT
Experimental: MDA-MB-468 untreated and chemoresistant cells were plated in 96 multi-well plates at a density of 10,000 cells per well and treated with increased concentration of 5-FU (1 μM to 0.5M) for 72 h. Cell cytotoxicity was assayed with XTT kit (Sigma, Ref: 11465015001) and IC 50 was calculated as the concentration of 5-FU that is required to obtain 50% of cell viability (Extended FIG. 2b).

[3] = test system: patient-derived xenograft (PDX) models PDX_95, PDX_39 & PDX_172 established from patients with residual TNBC; experiment: Capecitabine treatment of TNBC patient-derived xenograft models; assay type: in vivo, mice; conditions: oral Capecitabine
From the text: Patient samples and PDX models. Patient samples used in this study (n=9) originated from patient treated at Institut Curie with residual triple-negative breast cancers post-neoadjuvant chemotherapy, who gave informed consent for the profiling. In this study, we used three xenograft models generated from three different residual triple-negative breast cancers post-neoadjuvant chemotherapy (HBCx95 called PDX_95, HBCx39 called PDX_39 and HBCx172 called PDX_172 in the manuscript, see Extended Table2) established previously at Curie Institute with informed consent from the patient^46,47. Female Swiss nude mice were purchased from Charles River Laboratories and maintained under specific-pathogen-free conditions. Mouse care and housing were in accordance with institutional guidelines and the rules of the French Ethics Committee (project authorization no. 02163.02).
FIG. 1b: Five mice were not treated and kept as controls (termed “untreated”) and twenty-seven mice were treated orally with Capecitabine (Xeloda; Roche Laboratories) at a dose of 540 mg/kg, 5 d/week for 6 to 14 weeks. Relative tumor volumes (mm3) were measured as described previously^18. Eight mice were sacrificed after the first round of chemotherapy to study “residual” tumors (2 mice) or “persister” (6 mice) human tumor cells. […]

[4] = test system: MDA-MB-468, BT20 and HCC38; experiment: Number of persister cells after EZH2i pre-treatment and 5-FU; assay type: cell-based, human; conditions: 10 days pre-treatment, then 5-FU for 21 days
Experimental: Cell lines, culture conditions and drug treatments. […] All cell lines were cultured in a humidified 5% CO2 atmosphere at 37° C., and were tested as mycoplasma negative. […] Cells were treated with 5 μM of 5-FU (Sigma, Ref: […]) alone or in combination with KDM6A/Bi or EZH2i for indicated days. […] Cell proliferation, doubling time and IC50. MDA-MB-468, HCC38 and BT20 cells were stained with Trypan Blue (Invitrogen, Ref: T10282) exclusion test, and counted using a Countess automated cell counter (Invitrogen, Ref: C10228) at indicated time of treatment (FIG. 4a and Extended FIG. 8a/d/f).

[5] = target: T1, H3K27me3, EZH2 (Homo sapiens, UniProt Q15910); experiment: Western blotting of EZH2i-treated cells; assay type: cell-based; conditions: prior to chemotherapy treatment
T1 construct: endogenous in cells; host or cells: MDA-MB-468, HCC38 or BT20
Experimental: Western blotting. In Extended FIG. 8b/e/g, DMSO- and EZH2i-treated cells were lysed at 95° C. for 10 minutes in Laemmli buffer (50 mM Tris-HCl [pH 6.8], 2% SDS, 5% glycerol, 2 mM DTT, 2.5 mM EDTA, 2.5 mM EGTA, 4 mM Sodium Orthovanadate, 20 mM Sodium Fluoride, protease inhibitors, phosphatase inhibitors) and proteins concentrations were measured using a Pierce BCA protein Assay Kit (Thermo Fisher Scientific, Ref: 23225/23227). 10 μg of proteins were then separated on a 4-15% Mini-PROTEAN TGX Stain-Free Gel (Bio-Rad, Ref: 4568085) at 160V. After transfer, the membrane was blocked for 1 h at room temperature in PBS pH 7.4 containing 0.1% Tween-20 and 1% milk (Regilait). Incubation anti-H3K27me3 (Dilution: 1:2000, Cell Signaling, Ref: 9733) or EZH2 (Dilution: 1:2000, Cell Signaling, Ref: 5246) or Tubulin (Dilution: 1:1000, Thermo Fisher Scientific, Ref: 31460) primary antibodies diluted in PBS pH 7.4, 0.1% Tween-20 were performed at 4° C. overnight.

[6] = test system: MDA-MB-468 cells; experiment: Lineage barcode frequencies and diversity under 5-FU with EZH2i; assay type: cell-based, human; conditions: co-treatment with 5-FU, bulk lineage barcodes
From the text: Lentivirus packaging and cell transduction. Lentivirus was produced by transfecting the barcode plasmids pRRL-CMV-GFP-BCv2Ascl and p8.9-QV and pVSVG into HEK293T cells as previously described^30. MDA-MB-468 cells from ATCC were infected at passage 11 with lentivirus produced from the barcode library (pRRL-CMV-GFP-BCv 2Ascl) which includes 18206 different barcodes of 20 bp of a random stretch, at a low multiplicity of infection (MOI 0.1) to minimize the number of cells marked by multiple barcodes. Three weeks after transduction, cells were sorted for GFP expression to select cells with barcode insertion, and used for drug treatment.
Bulk lineage barcode library preparation and sequencing. Lineage barcodes are recovered by isolating genomic DNA from cells of interest (NucleoSpin Tissue, Mini kit for DNA from cells and tissue, Macherey Nagel, Ref: 740952.50). From the isolated genomic DNA, barcodes are amplified with three nested PCR steps as decribed in^30 (see Extended Table 1 for primer sequence). In short, after a first specific PCR for the common region of the lineage barcodes, the amplified material was prepared for sequencing by addition of the illumina sequencing adaptaters and indexing and purification. Sequencing was done in order to obtain 50 reads, on average, per barcoded cell.
Single-cell lineage barcode extraction from 10× datasets. […] To avoid running scripts on all reads we: 1. used samtools to extract all unmapped reads from the 10× output bam file, 2. used awk to take reads with either a 3′ or 5′ 20 bp match to the constant flanking region of the barcode allowing one mismatch, 3. retained only reads with both a 10× cell barcode and 10× UMI. We then located the 20 bp match to one of the constant flanking regions allowing one mismatch (but filtered out reads where a mismatch was in the first or last base to ensure the barcode is at the expected position). We then further required a 4 bp exact match on the other side of the barcode, and then extracted the 20 bp viral barcode, read name, 10× cell barcode and 10× UMI.
To assign one viral barcode to each 10× cell barcode, we determined a consensus viral barcode for each UMI. For each position in the barcode we returned the most frequently observed base and the proportion of reads supporting this consensus. Barcodes associated with a 10× CB-UMI pair were filtered if the proportion of reads supporting a position was ≤0.5 at ≥3 positions. […]
Bulk barcode pre-processing. […] In brief, using R-3.4.0 (R Development Core Team (2019) http://www.R-project.org), raw reads were first filtered for perfect to the input index-and common-sequences using XCALIBR (https://github.com/NKI-GCF/xcalibr) and filtered against the barcode reference list. […]

[7] = test system: BT20 and HCC38; experiment: Colony forming assay, 5-FU with KDM6A/Bi, additional TNBC cell lines; assay type: cell-based, human; conditions: BT20 and HCC38, 5-FU
Experimental: as §1, with “serum. All cell lines were cultured in a humidified 5% CO2 atmosphere at 37° C., and were tested as mycoplasma negative.” for “serum.”
(§2) Colony forming assay. TBNC cells were plated in 6 multi-well plates at a density of 200,000 cells per well and treated with the indicated drugs for 60 days (MDA-MB-468, FIG. 5a/b and Extended FIG. 9b) or 56 days (BT20) or 50 days (HCC38) (Extended FIG. 9). Cultures were incubated in humidified 37° C. incubators with an atmosphere of 5% CO2 in air, and treated plates were monitored for growth using a microscope. At the time of maximum foci formation, colony formation was evaluated after a staining with 0.5% Crystal Violet (Sigma, ref: C 3886).

[8] = test system: tumors in mice; experiment: Capecitabine and GSK-J4 treatment of mice, tumor volume and disease-free survival; assay type: in vivo
Experimental: FIG. 5c: Five mice were treated intraperitoneally with DMSO, five mice were treated intraperitoneally with GSK-J4 alone at a dose of 50 mg/kg, 5 d/week for 25 days. Twenty-five mice were treated orally with Capecitabine at a dose of 540 mg/kg, 5 d/week for 36 days and twenty-five mice were co-treated with Capecitabine and GSK-J4 for 36 days. Tumor volumes (mm3) were measured to follow recurrence. FIG. 5d: Disease-free survival was defined as the number of days between the observation of a complete response (relative tumor volume RTV compared to volume at onset of treatment<0.2) after the first round of Capecitabine treatment, and the appearance of a recurrent tumor (RTV>3). Statistical analysis was performed using a log-rank test.

[9] = test system: MDA-MB-468; experiment: Colony forming assay and persister cell count, 5-FU with KDM6A/Bi; assay type: cell-based, human
Experimental: as §1, with “serum. All cell lines were cultured in a humidified 5% CO2 atmosphere at 37° C., and were tested as mycoplasma negative.” for “serum.”
as §2

T1 sequence (Q15910 whole entry): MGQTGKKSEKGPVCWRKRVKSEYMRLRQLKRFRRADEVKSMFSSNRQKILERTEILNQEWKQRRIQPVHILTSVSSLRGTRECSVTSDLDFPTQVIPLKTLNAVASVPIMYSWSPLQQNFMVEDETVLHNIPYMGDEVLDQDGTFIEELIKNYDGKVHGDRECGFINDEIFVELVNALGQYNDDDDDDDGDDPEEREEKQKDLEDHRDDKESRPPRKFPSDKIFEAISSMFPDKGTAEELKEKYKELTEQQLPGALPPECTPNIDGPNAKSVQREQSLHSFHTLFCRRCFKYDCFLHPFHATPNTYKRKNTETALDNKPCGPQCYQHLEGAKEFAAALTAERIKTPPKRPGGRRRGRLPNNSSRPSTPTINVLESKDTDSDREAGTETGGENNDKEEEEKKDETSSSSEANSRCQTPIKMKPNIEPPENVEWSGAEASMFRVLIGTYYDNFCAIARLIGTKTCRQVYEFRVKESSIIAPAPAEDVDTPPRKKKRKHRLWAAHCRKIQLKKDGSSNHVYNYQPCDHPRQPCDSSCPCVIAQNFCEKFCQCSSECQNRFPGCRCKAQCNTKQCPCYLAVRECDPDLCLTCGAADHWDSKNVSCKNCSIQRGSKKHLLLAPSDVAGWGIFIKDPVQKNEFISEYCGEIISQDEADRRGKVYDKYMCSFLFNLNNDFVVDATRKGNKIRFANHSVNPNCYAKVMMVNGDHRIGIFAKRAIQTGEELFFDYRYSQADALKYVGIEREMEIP
T1 sequence (O75530 whole entry partner): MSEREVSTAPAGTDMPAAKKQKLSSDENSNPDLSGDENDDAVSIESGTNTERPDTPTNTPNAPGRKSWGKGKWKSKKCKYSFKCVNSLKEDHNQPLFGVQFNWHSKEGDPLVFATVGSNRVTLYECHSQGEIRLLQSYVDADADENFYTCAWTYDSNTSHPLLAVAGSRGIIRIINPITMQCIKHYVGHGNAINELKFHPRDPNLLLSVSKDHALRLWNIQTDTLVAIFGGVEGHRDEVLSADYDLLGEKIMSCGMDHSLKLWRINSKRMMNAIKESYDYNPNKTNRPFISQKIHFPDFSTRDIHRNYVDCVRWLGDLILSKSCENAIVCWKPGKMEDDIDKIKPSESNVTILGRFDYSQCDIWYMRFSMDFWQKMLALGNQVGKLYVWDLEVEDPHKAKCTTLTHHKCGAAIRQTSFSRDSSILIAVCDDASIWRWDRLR
T1 sequence (Q15022 whole entry partner): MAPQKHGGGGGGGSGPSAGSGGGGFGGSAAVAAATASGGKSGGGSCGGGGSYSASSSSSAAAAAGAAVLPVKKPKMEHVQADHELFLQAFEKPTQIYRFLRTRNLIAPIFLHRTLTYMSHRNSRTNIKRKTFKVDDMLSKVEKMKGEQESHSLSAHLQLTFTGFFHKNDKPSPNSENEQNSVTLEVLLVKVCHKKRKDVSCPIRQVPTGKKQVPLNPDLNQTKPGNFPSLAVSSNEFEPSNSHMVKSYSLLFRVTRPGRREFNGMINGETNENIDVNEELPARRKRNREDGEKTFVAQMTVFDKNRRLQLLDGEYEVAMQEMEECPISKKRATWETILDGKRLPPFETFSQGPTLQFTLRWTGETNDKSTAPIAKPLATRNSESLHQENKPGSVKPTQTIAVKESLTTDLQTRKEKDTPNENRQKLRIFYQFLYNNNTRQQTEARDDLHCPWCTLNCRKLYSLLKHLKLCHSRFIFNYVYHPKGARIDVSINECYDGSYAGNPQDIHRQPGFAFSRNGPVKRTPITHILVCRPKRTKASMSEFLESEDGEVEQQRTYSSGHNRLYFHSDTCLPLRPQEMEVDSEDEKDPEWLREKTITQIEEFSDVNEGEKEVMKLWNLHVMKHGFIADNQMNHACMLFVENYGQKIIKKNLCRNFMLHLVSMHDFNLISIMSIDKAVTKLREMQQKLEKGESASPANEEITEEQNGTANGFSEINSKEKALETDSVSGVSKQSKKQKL

## O=c1[nH]cc(F)c(=O)[nH]1 [5-FU, Fluorouracil]
[1]; MDA-MB-468, 5-FU, after 3 weeks
  cells surviving drug insult: 0.01 % of the initial population
[1]; MDA-MB-468 persister cells under 5-FU
  time until surviving cells started proliferating again under chemotherapy: 10 to 15 days
[2]
  IC50 to 5-FU of resistant cells relative to untreated population: over 4 fold

## CCCCCOC(=O)Nc1nc(=O)n([C@@H]2O[C@H](C)[C@@H](O)[C@H]2O)cc1F [Capecitabine]
[3]
  tumor response to first round of chemotherapy: mice displayed a pathological complete response (pCR), but tumors eventually recurred

## CC[C@H](C)n1cc(C)c2c(C(=O)NCc3c(C)cc(C)[nH]c3=O)cc(-c3ccc(N4CCNCC4)nc3)cc21 [EZH2i-2]
[4]
  number of persister cells: increased the number of persister cells
[5]
  EZH2 protein levels: without perturbing EZH2 protein levels
  H3K27me3 level: erasing H3K27me3
[6]
  correlation scores between lineage frequencies in 5-FU and DMSO treated population: increased correlation scores

## CCOC(=O)CCNc1cc(N2CCc3ccccc3CC2)nc(-c2ccccn2)n1 [GSK-J4]
[7]
  confirmation of KDM6i effects on persister cells: confirmed
[8]; GSK-J4 50 mg/kg intraperitoneally
  toxicity for the mice: nor was toxic for the mice
[8]; GSK-J4 alone, 50 mg/kg intraperitoneally
  tumor progression in absence of chemotherapy: did not inhibit tumor progression
[8]; in combination with Capecitabine versus Capecitabine alone, n=25 each, p=4.0e-2
  delay to recurrence (disease-free survival): significantly increased the delay to recurrence
[9]; added after onset of 5-FU rather than in combination
  effect when administered once persister cells have emerged: inefficient
[9]; co-treatment with 5-FU
  number of persisters at day 21: decrease in the number of persisters
[9]; co-treatment with 5-FU, colony forming assay
  growth of persister cells under 5-FU at day 60: completely abolished the growth of persister cells
[9]; without 5-FU
  effect on untreated cancer cells: no effect on untreated cancer cells

## CCCc1cc(C)n(C)c(=O)c1CN(C)C(=O)c1cc(-c2ccc(N3CCN(C(C)C)CC3)nc2)cc2c1cnn2C(C)C [UNC240034]
[4]
  number of persister cells: no effect
[6]
  correlation scores between lineage frequencies in 5-FU and DMSO treated population: no effect on lineage frequencies
